Data as given in patent US11285159B2 (AbbVie Inc., priority 2019, dated 2022).
Read-outs that look alike come from different tables or passages of the source. Each block holds one compound with its values, some of them ahead of it.

Legend:
[1] = test system: myeloproliferative neoplasm patient samples cultured ex vivo and myeloproliferative neoplasm-derived cell lines bearing the activating JAK-2 V617F mutation; details: cited from earlier work
[2] = test system: myeloproliferative neoplasm cells; endogenous erythroid colonies representing malignant PV clones; details: cited from earlier work
[3] = co-administration of navitoclax with rifampin; type: in vivo, human; details: 600 mg once daily rifampin for 4 days; 11 subjects with cancer
From the text: Increased dosage should be made with frequent monitoring of safety and efficacy.

[4] = test system: subjects with primary or secondary myelofibrosis; assay: Phase 2 study of navitoclax in combination with ruxolitinib (Example 1)
From the text: Treatment continued until the end of clinical benefit, unacceptable toxicity, or discontinuation. The primary efficacy endpoint was percentage reduction in splenic volume from baseline. Secondary endpoints included effect on total symptom score (TSS), overall response rate, rate of anemia response, improvement in bone marrow fibrosis, and safety profile.
For this study, inclusion criteria included the following: • 1. Subject must be ≥18 years of age. • 2. Subject has documented diagnosis of Intermediate or High-Risk Primary Myelofibrosis, Post-Polycythemia Vera Myelofibrosis (PPV-MF), or Post-Essential Thrombocythemia Myelofibrosis (PET-MF) as defined by the World Health Organization classification. • 3. Subject must be ineligible or unwilling to undergo stem cell transplantation at time of study entry. • 4. Subject must have an Eastern Cooperative Oncology Group (ECOG) Performance Score of 0, 1, or 2. • 5. […] Prior treatment with JAK-2 inhibitor for at least 12 weeks • b. Prior treatment with JAK-2 inhibitor for at least 28 days complicated by any of the following: • i. […] Splenic irradiation within 6 months prior to screening, or prior splenectomy. • 2. Leukemic transformation (>10% blasts in peripheral blood or bone marrow biopsy). • 3. Subject is currently on medications that interfere with coagulation (including warfarin) or platelet function with the exception of low dose aspirin (up to 100 mg) and low-molecular-weight heparin (LMWH). • 4. Prior therapy with a BH3 mimetic compound. • 5.
Subjects needed to have received ruxolitinib therapy for at least 12 weeks prior to study enrollment without interruption, have splenomegaly as defined by a spleen palpable ≥5 cm below costal margin and be currently on a stable dose of ≥10 mg BID of ruxolitinib.

platelets [5] = assay: exposure-platelet response model, parameter estimation (NONMEM); design: species or system human
From the text: The model was based on established models described in the literature (Kaefer, A., Yang, J., Noertersheuser, P. et al. Cancer Chemother Pharmacol (2014) 74: 593. doi:10.1007/s00280-014-2530-2530; and Friberg, Lena E., et al. “Model of chemotherapy-induced myelosuppression with parameter consistency across drugs. “Journal of clinical oncology 20.24 (2002): 4713-4721, both references hereby incorporated by reference in their entireties).
PK model for ruxolitinib was described by a two-compartment model with a lag-time in absorption (Equations 2a through 2c).
The time course of platelet response was modeled using a semi-physiological model that comprised a progenitor cell compartment, three transition compartments representing the maturation chain in the bone marrow and a peripheral blood compartment (see FIG. 2). A feedback system was used in this model to describe the increase in the maturation rate in bone marrow when the platelet level in the blood compartment is below baseline and decrease in the maturation rate when the platelet level in blood is above baseline. […] Equations 3 to 9 represent the PD model.
The model is initialized at 0 for the PK related compartments, at POOL for the PROLIF compartment, and at 1 for the maturation and circulation compartments. The platelet prediction is obtained by (Baseline Platelets)×PLT1×PLT2. The rates of the Platelet1 model are set to be the same ktrans=kin=kout due to a steady state assumption without treatment interference.
A factor was included on the baseline platelet count such that baseline(t=−84 days)=factor×baseline(t=0 days)
This yields a relative pseudo baseline at initiation of ruxolitinib (referred to as ‘ruxolitinib factor’ on baseline platelet count). […] The first 56 days of data were fitted to avoid influence of long-term disease effects on the model.
No inter-individual variability was estimated on ruxolitinib EC50 since limited data precluded its appropriate estimation.

spleen volume [6] = assay: exposure-spleen volume response model, parameter estimation (NONMEM); design: species or system human; details: spleen volume inhibition; R/R MF, cohort 1a data
From the text: Spleen volume data up to only week 40 was used in the model to improve model predictability. […] Inter-individual variability with full correlation matrix was incorporated on estimated baseline spleen volume, kout, EC50NAV and EC50RUX using exponential function and the residual variability was characterized using combined proportional and additive error model.
At baseline, the rates of the spleen volume model are set to be the same kin=kout due to a theoretical steady state assumption without treatment interference. This leads to an initial condition for the SV compartment of 1, where SV predictions are derived by multiplying this compartment with baseline. Disease progression was included in the model with the factor “Eprog” on “kin”.

BCL-W = target: T1, BCL-W (Homo sapiens, UniProt Q92843); details: cited from earlier work
T1 sequence (Q92843 1-193): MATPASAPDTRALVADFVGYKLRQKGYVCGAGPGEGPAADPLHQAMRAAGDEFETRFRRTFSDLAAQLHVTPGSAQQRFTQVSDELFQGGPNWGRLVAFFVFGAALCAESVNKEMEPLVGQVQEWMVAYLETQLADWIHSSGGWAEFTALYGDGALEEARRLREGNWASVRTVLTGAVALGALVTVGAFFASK

[7] = test system: human tumor cell lines derived from small cell lung carcinomas and lymphoid malignancies; details: read-out: EC50, mechanism-based cytotoxicity; cited from earlier work
[8] = test system: 22 cell lines consisting of multiple leukemia and lymphoma types spanning both B-cell and T-cell malignancies; details: cited from earlier work
[9] = test system: resistance to JAK-2 inhibitors associated with BCL-XL elevation; details: cited from earlier work
[10] = test system: tumors in mice bearing the Eμ-TEL-JAK-2 transgene or PDX mice bearing JAK-2-mutated B-ALL cells; details: cited from earlier work
[11] = 400 mg once daily ketoconazole; 10 subjects with cancer; cited from earlier work
platelets [12] = details: effect on platelets, cited from earlier work; for Ruxolitinib EC50: fixed to published value
[13] = test system: patients with intermediate or high-risk primary or secondary myelofibrosis; details: ruxolitinib monotherapy; cited from earlier work
spleen volume [14] = details: spleen volume inhibition, fixed to a published value, cited from earlier work
[15] = 22 subjects with ruxolitinib dose reduction

Compound: CN(C)CC[C@H](CSc1ccccc1)Nc1ccc(S(=O)(=O)NC(=O)c2ccc(N3CCN(Cc4ccccc4-c4ccc(Cl)cc4)CC3)cc2)cc1[N+](=O)[O-] [ABT-737]
cell killing activity [1]: cell killing activity | endogenous erythroid colonies growing in the absence of erythropoietin ([2]; 500 nM ABT-737): significantly inhibited | endogenous erythroid colonies growing in the absence of erythropoietin ([2]; 100-300 nM ABT-737 combined with a JAK-2 inhibitor): further suppressed | proliferation of myeloproliferative neoplasm cells [2]: ability to block the proliferation

Compound: CC1(C)CCC(c2ccc(Cl)cc2)=C(CN2CCN(c3ccc(C(=O)NS(=O)(=O)c4ccc(N[C@H](CCN5CCOCC5)CSc5ccccc5)c(S(=O)(=O)C(F)(F)F)c4)cc3)CC2)C1 [Navitoclax, 4-(4-{[2-(4-chlorophenyl)-5,5-dimethyl-1-cyclohexen-1-yl]methyl}-1-piperazinyl)-N-[(4-{[(2R)-4-(4-morpholinyl)-1-(phenylsulfanyl)-2-butanyl]amino}-3-[(trifluoromethyl)sulfonyl]phenyl)sulfonyl]benzamide]
decrease of navitoclax AUC∞ [3]: 41% | decrease of navitoclax Cmax [3]: 16% | Dose Delay/Interruption: More Than One Interruption, % ([4]; human, in vivo): (39.1) % | Dose Delay/Interruption: No Interruption, % ([4]; human, in vivo): (34.8) % | Dose Delay/Interruption: Only One Interruption, % ([4]; human, in vivo): (26.1) % | Dose Reduction: More Than One Dose Reduction, % ([4]; human, in vivo): (39.1) % | Dose Reduction: No Dose Reduction, % ([4]; human, in vivo): (17.4) % | Dose Reduction: Only One Dose Reduction, % ([4]; human, in vivo): (43.5) % | Reasons for Dose Delay/Interruption: Adverse Events, % ([4]; human, in vivo): (52.2) % | Reasons for Dose Delay/Interruption: Anemia, % ([4]; human, in vivo): (4.3) % | Reasons for Dose Delay/Interruption: Diarrhea, % ([4]; human, in vivo): (4.3) % | Reasons for Dose Delay/Interruption: Other adverse events, % ([4]; human, in vivo): (17.4) % | Reasons for Dose Delay/Interruption: Thrombocytopenia, % ([4]; human, in vivo): (34.8) % | Reasons for Dose Reduction: Adverse Events, % ([4]; human, in vivo): (73.9) % | Reasons for Dose Reduction: Anemia, % ([4]; human, in vivo): (17.4) % | Reasons for Dose Reduction: Diarrhea, % ([4]; human, in vivo): (8.7) % | Reasons for Dose Reduction: Other adverse events, % ([4]; human, in vivo): (30.4) % | Reasons for Dose Reduction: Thrombocytopenia, % ([4]; human, in vivo): (47.8) % | Reasons for Dose Delay/Interruption: Other (non-adverse event), % ([4]; in vivo): (30.4) % | Reasons for Dose Reduction: Other (non-adverse event), % ([4]; in vivo): (17.4) % | Navitoclax EC50, estimate and 95% confidence interval (platelets [5]; effect on platelets, fitted to data of 34 subjects): 3.61 (1.97; 6.58) mg/L | Navitoclax EC50, estimate (spleen volume [6]): 4.37 mg/L | Ki (BCL-W): ≤ 0.001 µM | EC50 [7]: ≤ 1 µM | cell lines with potent single agent activity [8]: 10 of 22 | cell killing activity [1]: cell killing activity | overcoming resistance to JAK-2 inhibitors [9]: ability to overcome that resistance | survival of mice with JAK-2-mutated tumors ([10]; combination of navitoclax and a JAK-2 inhibitor vs either agent alone): superior to either agent alone | growth of tumors ([10]; navitoclax added to a JAK-2 inhibitor): significantly slowing the growth of tumors | impact on navitoclax Cmax [11]: no impact | increase of navitoclax AUC∞ [11]: 1.55 fold | Navitoclax Emax (platelets [12]; fixed, based on Kaefer et al.): 5

ruxolitinib dose reductions due to anemia [4, 15]: 18.2% | ruxolitinib dose reductions due to thrombocytopenia [4, 15]: 86.4% | subjects whose ruxolitinib dose was reduced to 10 mg BID ([4]; 25 subjects enrolled on ruxolitinib >10 mg BID): 88% | drop in platelet count (platelets [5]; at average ruxolitinib concentration): ~36% | Ruxolitinib EC50, estimate (spleen volume [6]): 0.0144 mg/L
Compound: N#CC[C@H](C1CCCC1)n1cc(-c2ncnc3[nH]ccc23)cn1 [Ruxolitinib, (R)-3-(4-(7H-pyrrolo[2,3-d]pyrimidin-4-yl)-1H-pyrazol-1-yl)-3-cyclopentylpropanenitrile]
ruxolitinib factor for relative pseudo baseline platelet count (platelets [5]): 1.53 fold | BaselineFactor (ruxolitinib factor on baseline platelet count), estimate and 95% confidence interval (platelets [5]; pseudo baseline at initiation of ruxolitinib relative to baseline at initiation of navitoclax): 1.53 (1.41; 1.65) | patients achieving spleen volume reduction of ≥35% (SVR35) [13]: approximately 40% | time after start of monotherapy within which SVR35 is typically observed [13]: ≤ 12 weeks | Ruxolitinib EC50 (platelets [12]): 0.0825 mg/L | Ruxolitinib EC50 (platelets [12]; listed as ruxolitinib): 0.08248 mg/L | Ruxolitinib Emax (platelets [12]; fixed, assumed (JAKAFI approval package)): 1 | Ruxolitinib Emax (spleen volume [14]): 0.765 fixed | Ruxolitinib Emax (spleen volume [14]; listed as ruxolitinib): 0.765
